Two substances from patent publication US20230392153A1, “SUMO Targeting Morpholinos as both Enhancers of Anti-Cancer Effects of Chemotherapeutic Treatments and Preventative Agents Against the Establishment of Chemoresistance” (Board of Regents, The University of Texas System, priority 2022, published 2023) can be followed below.

{OctaGua} = octa-guanidine dendrimer (vivo-morpholino)

The series relates to mature mRNA transcripts derived from the SUMO2 gene, S2V1 and S2V2. Nature of the series: qRT-PCR quantification of SUMO2 transcript variants (CNE100 ng) in A549 cells treated with vivo-morpholinos. It counts as cell-based, human. Particulars: 4 μM, 24 hours. The method, then:
Made to order vivo-morpholinos are readily available and can be procured from Gene Tools, LLC (Philomath, OR) based on specified embodiments of this disclosure, and reconstituted at a final concentration of 400 μM using RNase & DNase-free milli-Q water. The reconstituted vivo-morpholinos were kept in solution at room temperature. To test the vivo-morpholinos, A549 cells were seeded in 6 well plates at a density of 0.5×10^6 cells per well in a final volume of 3 mL per well. The day after cell seeding, the vivo-morpholinos were diluted down to a final concentration of 4 μM and a final volume of 2 mL using 1× Opti-MEM™ I (Thermo Fisher Scientific, Waltham, MA), the plating media was discarded using vacuum suction, and the diluted vivo-morpholinos were immediately added to the cells (2 mL per well). The cells were maintained in the presence of the vivo-morpholinos at 37° C. and 5% CO 2 for another 24 hours and subsequently the cells were collected and processed for RNA isolation. […] RNA quantification was performed using a NanoDrop™ One s Microvolume UV-Vis Spectrophotometer (Thermo Fisher Scientific). Upon quantification, the purified RNA was divided into 9 μL aliquots and stored at −80° C. until used for qRT-PCR. […]
CNE100 ng were calculated using the Cq values obtained in the qRT-PCR reactions indicated above and calibration curves generated using purified RNA produced in vitro corresponding to each of the segments targeted by the primer sets indicated above.
The primer sets used to quantify each of the SUMO2 mature mRNA transcripts are indicated below. […]
The experiments described above were performed four different times. […] In the three subsequent independent experiments, all samples were analyzed in triplicate and the averages were calculated. […]
Referring to FIG. 5, quantitative analysis of the SUMO2 transcript variants present in A549 cells under normal conditions as well as upon a 24 hour treatment with the vivo-morpholinos S2E3Acc and S2E3Don is presented. […]
Background: Quantitative PCR measures a nucleic acid by following its amplification.

Take “S2E3Acc: Vivo-morpholino, SEQ ID NO: 3, 5′ CCTCATTGACAATCCCTGAACGAGA 3′; targets SUMO2 exon 3 at the splicing acceptor site (CCUCAUUGACAAUCCCUGAACGAGA; all phosphorodiamidate morpholino (PMO), 3' {OctaGua}, T or U not given here)”: the “effect on the proportion of S2V1:S2V2 present in the cell” value is “significative changes”. In addition, the “decrease in the CNE100 ng of S2V1” value (versus normal conditions (untreated)) is roughly 10 fold.

On to “S2E3Don: Vivo-morpholino, SEQ ID NO: 4, 5′ GAGATTTTTTTACCTGTGCAGGTGT 3′; targets SUMO2 exon 3 at the splicing donor site (antisense GAGAUUUUUUUACCUGUGCAGGUGU; all phosphorodiamidate morpholino (PMO), 3' {OctaGua}, T or U not given here)”, for which the “effect on the proportion of S2V1:S2V2 present in the cell” value is on record as “significative changes”.
